Laboratory results published in patent US6703540B1, “Transformation of plants with a chloroperoxidase gene to enhance disease resistance” (The United States of America as represented by the …, priority 2000, dated 2004).

B1: myeloperoxidase: animal haloperoxidase converting hydrogen peroxide to hypochlorous acid (protein, UniProt P05164 165-745, looked up)
Myeloperoxidase: VTCPEQDKYRTITGMCNNRRSPTLGASNRAFVRWLPAEYEDGFSLPYGWTPGVKRNGFPVALARAVSNEIVRFPTDQLTPDQERSLMFMQWGQLLDHDLDFTPEPAARASFVTGVNCETSCVQQPPCFPLKIPPNDPRIKNQADCIPFFRSCPACPGSNITIRNQINALTSFVDASMVYGSEEPLARNLRNMSNQLGLLAVNQRFQDNGRALLPFDNLHDDPCLLTNRSARIPCFLAGDTRSSEMPELTSMHTLLLREHNRLATELKSLNPRWDGERLYQEARKIVGAMVQIITYRDYLPLVLGPTAMRKYLPTYRSYNDSVDPRIANVFTNAFRYGHTLIQPFMFRLDNRYQPMEPNPRVPLSRVFFASWRVVLEGGIDPILRGLMATPAKLNRQNQIAVDEIRERLFEQVMRIGLDLPALNMQRSRDHGLPGYNAWRRFCGLPQPETVGQLGTVLRNLKLARKLMEQYGTPNNIDIWMGGVSEPLKRKGRVGPLLACIIGTQFRKLRDGDRFWWENEGVFSMQQRQALAQISLPRIICDNTGITTVSKNNIFMSNSYPRDFVNCSTLPALNLASWREAS

How the values were obtained:
[1] = tested on: Aspergillus flavus; test: Comparative lethalities of oxidants to Aspergillus flavus; assay type: cell-based; settings: mM concentrations of oxidants that produce 50% killing of Aspergillus flavus
[2] = tested on: endogenous peroxidase; test: Endogenous peroxidase activity in leaf extracts assayed with guaiacol; assay type: biochemical, Nicotiana tabacum; settings: guaiacol assay
Source text: The validity of the assay procedure for CPO-P activity in transgenic tobacco was established in the following manner.

[3] = tested on: Aspergillus flavus; settings: H2O2 converted to hypochlorite by myeloperoxidase, in vitro; cited from earlier work

Molecule	LD50 [1]	also measured
OO [Plant H2O2, hydrogen peroxide]	18.00 mM	
CC(=O)OO [HOOAc, peracetic acid]	0.15 mM	
[N-]=[N+]=[N-].[Na+] [NaN3]		inhibition of endogenous peroxidase activity in leaf extracts (in words) [2]: completely inhibited
OCl [HOCl, hypochlorous acid]	0.30 mM	
B1		increase in lethality against Aspergillus flavus [3]: ≤ 90 fold
